Here are results for four compounds from patent US20220362386A1, “LIQUID COMPOSITIONS COMPRISING A LEVODOPA AMINO ACID CONJUGATE AND USES THEREOF” (NeuroDerm, Ltd., priority 2019, published 2022).

The conditions of series [1]: 0 weeks.
Experimental: (§5) It is noted that the recovery % compared the amount of any given material as measured at t=28 h (or any other presented value) compared to the amount of that material, at measured at t=0.
Series [2] is described as follows: Analytical stability of LD-Tyr/CD formulations by HPLC (Tables 42-45c). Particulars: for Analytical stability result (HPLC), t = 1 week / Analytical stability result (HPLC), t = 2 weeks: in mg/mL (unit assumed).
Experimental: as §5
A short description of series [3]: physchem. It counts as physicochemical. On the procedure: The volume of the solution in the bottle was adjusted to 5 ml, either by adding solvent, or be removing any residual solution, after which the bottle was tightly closed and left at 25° C. for stability observation. It is noted that throughout Example 4, the concentrations in the tables below were calculated taking into account the amount of solvent added or the solution removed, in which event, the calculations were performed regarding the 5 ml+(amount removed) as the volume of the solution. It is further noted that throughout this document, unless mentioned otherwise, the stability was measured using the manual visual inspection Bosch apparatus MIH DX, at a magnification of ×1.75.
The LD-Tyr free base, prepared according to Example 2, was added to a solvent, as detailed in Table 7 below, and neutralized by addition of NaOH. When maximum solubility was observed, the solution was filtered and then transferred to a bottle that was previously weighed and flushed with nitrogen. The volume of the solution in the bottle was adjusted to 5 ml, after which the bottle was tightly closed and left at 25° C. for stability observation.
When maximum solubility was observed, the solution was filtered and then transferred to a bottle that was previously weighed and flushed with nitrogen. The volume of the solution in the bottle was adjusted to 5 ml, after which the bottle was tightly closed and left at 25° C. for stability observation.
(§1) When maximum solubility was observed, the solution was filtered and then transferred to a bottle that was previously weighed and flushed with nitrogen. The volume of the solution in the bottle was adjusted to 5 ml, after which the bottle was tightly closed and stored at 25° C. for stability observation.
as §1
LD-Lys TFA salt, prepared according to Example 1, and which comprises two equivalents of TFA, was added to a solvent, as detailed in Table 11 below, and neutralized by addition of NaOH. When maximum solubility was observed, the solution was filtered and then transferred to a bottle that was previously weighed and flushed with nitrogen. The volume of the solution in the bottle was adjusted to 5 ml, after which the bottle was tightly closed and stored at 25° C. for stability observation.
As detailed above regarding other solutions, with the LD-Tyr free base when maximum solubility was observed, the solution was filtered and then transferred to a bottle that was previously weighed and flushed with nitrogen. The volume of the solution in the bottle was adjusted to 5 ml, after which the bottle was tightly closed and left at 25° C. for stability observation.
LD-Lys HCl salt, prepared according to Example 3, was added to a solvent, as detailed in Table 13 below, and neutralized by the addition of NaOH. When maximum solubility was observed, the solution was filtered and then transferred to a bottle that was previously weighed and flushed with nitrogen. The volume of the solution in the bottle was adjusted to 5 ml, after which the bottle was tightly closed and left at 25° C. for stability observation.

A short description of series [4]: Stability observation of the solubility solutions at 25° C. (visual inspection for precipitants). It counts as physicochemical. The procedure:
The volume of the solution in the bottle was adjusted to 5 ml, either by adding solvent, or be removing any residual solution, after which the bottle was tightly closed and left at 25° C. for stability observation. […] It is further noted that throughout this document, unless mentioned otherwise, the stability was measured using the manual visual inspection Bosch apparatus MIH DX, at a magnification of ×1.75.

Series [5] deals with human plasma. Description: Protein binding, solid phase extraction (SPE) method. It counts as in vitro ADME. The following applies: 1.0E−05M; SPE sample preparation. On the procedure:
(§2) A solid phase extraction (SPE) method was used to prepare samples for several compounds in the plasma protein binding assay. The following SPE protocols were followed:
(§3) Sorbent: Waters Oasis MCX 96—well MicroElution Plate—Cat #186001830BA Sample: 200 μL of plasma spiked at 10 μM with test compound. Sample was diluted 1:1 with 4% phosphoric acid in water and mixed for 15 minutes 1) Place Oasis plate on vacuum manifold and set vacuum to 5″ Hg; 2) Condition with 200 μL methanol; 3) Equilibrate with 200 μL water; 4) Load dilute plasma sample; 5) Wash with 200 μL 2% formic acid in water; 6) Wash with 400 μL methanol; and 7) Elute with 100 μL 5% NH4OH in methanol.
(§4) Sorbent: Waters Oasis MAX 96-well MicroElution plate—Cat #186001829 Sample: 200 μL of plasma spiked at 10 μM with test compound. Sample was diluted 1:1 with 4% phosphoric acid in water and mixed for 15 minutes 1) Place Oasis plate on vacuum manifold and set vacuum to 5″ Hg; 2) Condition with 200 μL methanol; 3) Equilibrate with 200 μL water; 4) Load dilute plasma sample; 5) Wash with 200 μL 5% NH4OH in water; 6) Wash with 400 μL methanol; and 7) Elute with 100 μL 2% formic acid in methanol.

Test in series [6]: as above
It counts as in vitro ADME, human. The following applies: human, human plasma, 1.0E−05M, SPE sample preparation. On the procedure:
as §2, §3, §4

Series [7] in a line: Human blood stability test. In kind it is in vitro ADME. The following applies: slope of the percentage decrease of remaining compound; substrate 10 μM; 0-60 minutes. On the procedure:
The stability of several LDAA compounds in human blood was tested. The substrate concentration was 10 μM and the incubation time 0, 5, 15, 30 and 60 minutes.
The results are described in Table 19, wherein the results describe the Ke, i.e., the slope of the percentage decrease of the remaining amount of the compound, measured at each of the above time points, such that the higher the Ke the faster the metabolism.

The nature of series [8]: Human liver S9 stability test. In kind it is in vitro ADME. Particulars: slope of the percentage decrease of remaining compound; substrate 10 μM; S9 protein 0.2 mg/mL; 0-60 minutes. The procedure: The stability of several LDAA compounds, in their TFA salt form, in human liver S9 was tested using commercially available liver S9. The substrate concentration was 10 μM, the S9 protein concentration was 0.2 mg/mL, and the incubation time 0, 5, 15, 30 and 60 minutes.
The results are described in Table 18, wherein the results describe the Ke, i.e., the slope of the percentage decrease of the remaining amount of the compound, measured at each of the above time points, such that the higher the Ke the faster the metabolism.

Setting [9] is: NB 144-4 formulation, Storage temp. 2-8° C.
Setting [10] is: NB 144-4 formulation, Storage temp. 25° C.
[11] abbreviates: NB 144-4 formulation, Storage temp. 40° C.
[12] abbreviates: NB 144-32 (F1), 37% LD-Tyr/0.5% CD.
The mark [13] stands for this setting: NB 144-34 (F2), 44% LD-Tyr/0.5% CD.
[14] abbreviates: NB 144-39 (F3), 30% LD-Tyr/0.5% CD.
Where [15] appears, read: 0.75% CD solution, pH 8.5, 240 mg/ml salt.

The structures appear in SMILES notation. Structures can show the parent of a compound that is named as a salt. Where two headings read alike, the source gives them in different places. Non-standard residues stand in square brackets, D forms with d. Residues, ends and D or L forms follow the SMILES beside them. Dopa = N[C@@H](Cc1ccc(O)c(O)c1)C(=O)O

For the compound `C[C@@](Cc1ccc(O)c(O)c1)(NN)C(=O)O` [CD], the “Analytical stability result (HPLC), t = 0” value is 7.37 in series [1]; 7.37 in series [2] (NB 144-4 formulation (30% LD-Tyr/0.75% CD), Storage temp. 2-8° C.); 7.37 in series [2] (setting [11]). The “% retention, t = 1 week” value in series [2] (setting [9]) worked out at 99.9%; in series [2] (setting [10]), 99.3%; in series [2] (setting [11]) it was 98.5%. The “Analytical stability result (HPLC), t = 1 week” value is on record as 7.36 in series [2] (setting [9]), 7.32 in series [2] (setting [10]) and 7.26 in series [2] (setting [11]). The “% retention, t = 2 weeks” value is listed as 99.1% in series [2] (setting [9]) and 100.5% in series [2] (setting [10]). The “Analytical stability result (HPLC), t = 2 weeks” value in series [2] (setting [9]) came to 7.30; in series [2] (setting [10]), 7.41. The “Concentration (HPLC), t = 0” value in series [2] (setting [12]) came to 4.78; in series [2] (setting [13]), 4.84; in series [2] (setting [14]) it was 4.86. Also, the “Concentration (HPLC), t = 28 h at 32° C.” value is given as 4.77 in series [2] (setting [12]), 4.78 in series [2] (setting [13]) and 4.74 in series [2] (setting [14]).
As for `NCCCC[C@H](NC(=O)[C@@H](N)Cc1ccc(O)c(O)c1)C(=O)O` [LD-Lys HCl salt] (H-[Dopa]-Lys-OH), the Appearance result in series [3] (0.75% CD solution, pH 6.46, 240 mg/ml salt) was “Clear”; in series [3] (setting [15]), “Clear”; in series [3] (WFI, pH 6.51, 350 mg/ml salt) it was “Clear”. The solubility thermodynamic in series [3] (25 °C, aqueous buffer, thermodynamic from solid, solvent WFI, pH 6.51, HCl counter-ion, read-out: LD-Lys TFA salt concentration) stood at 350 mg/mL. Besides, the “LD-Lys free base Concentration” value in series [3] (solvent 0.75% CD solution, pH 6.46) amounted to 200 mg/mL; in series [3] (solvent 0.75% CD solution, pH 8.5), 200 mg/mL; in series [3] (solvent WFI, pH 6.51) it was 290 mg/mL. In addition, the “LD-Lys TFA salt concentration” value in series [3] (solvent 0.75% CD solution, pH 6.46, HCl counter-ion) amounted to 240 mg/mL; in series [3] (solvent 0.75% CD solution, pH 8.5, HCl counter-ion), 240 mg/mL. The Stability entry in series [4] (setting [15]) is on record as “Precipitated* (precipitated within 12 hours at room temperature)”; in series [4] (WFI, pH 6.51, 350 mg/ml salt), “Stable (physically stable for at least 12 hours)”.
Consider `N[C@@H](Cc1ccc(O)c(O)c1)C(=O)N[C@@H](CCC(=O)O)C(=O)O` [LD-Glu TFA salt, Levodopa Glutamic Acid TFA Salt] (H-[Dopa]-Glu-OH), for which the “% Protein Bound 1st” value in series [5] was found to be 36.6%. The “% Protein Bound 2nd” value in series [5] worked out at 49.4%. Also, the “% Protein Bound Mean” value in series [5] is listed as 43%. Further, the recovery at 10 μM in series [6] (read-out: % Recovery 1st) stood at 110%; in series [6] (read-out: % Recovery 2nd) it was 115%; in series [6] (read-out: % Recovery Mean), 112%.
As to `NC(=O)[C@@H](N)Cc1ccc(O)c(O)c1` [LDA (levodopa amide), levodopa amide, reference compound], the Ke in series [7] is 0.0149; in series [8], −0.0008.
